Laboratory results: PubChem BioAssay AID624167 (Sanford-Burnham Center for Chemical Genomics, 2012)
Activity calls are given as the source filed them.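 How the source made its calls: active means mean IC50 for reducing PEG3 promoter reporter signal at or below a set limit, with IC50 above the limit in both counter screens; inactive means the rest, including counter screen hits.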

What was measured:
[1] = Peg3 promoter luciferase inhibitors, potency, dose response, cell-based, HeLa, CREF/GAPDH counter-screen panel (AID 624167); conditions: CREF/GAPDH counter-screens; GAPDH; mean of runs
GAPDH = assay: as above; conditions: CREF/GAPDH counter-screens
PEG-3 [2] = molecular target: PEG-3 (UniProt Q6IN02); assay: as above; conditions: HeLa PEG-Prom luciferase reporter, overnight, CREF/GAPDH counter-screens, mean of runs
PEG-3 [3] = assay: as above; conditions: HeLa PEG-Prom luciferase reporter, overnight, CREF/GAPDH counter-screens
Rat fibroblasts (CREF) = assay: as above; conditions: CREF/GAPDH counter-screens
[4] = run 1, dose range 1, individual replicate IC50 per panel
[5] = run 2, dose range 1, individual replicate IC50 per panel

Chain of PEG-3 (UniProt Q6IN02) (Q6IN02 whole entry, looked up): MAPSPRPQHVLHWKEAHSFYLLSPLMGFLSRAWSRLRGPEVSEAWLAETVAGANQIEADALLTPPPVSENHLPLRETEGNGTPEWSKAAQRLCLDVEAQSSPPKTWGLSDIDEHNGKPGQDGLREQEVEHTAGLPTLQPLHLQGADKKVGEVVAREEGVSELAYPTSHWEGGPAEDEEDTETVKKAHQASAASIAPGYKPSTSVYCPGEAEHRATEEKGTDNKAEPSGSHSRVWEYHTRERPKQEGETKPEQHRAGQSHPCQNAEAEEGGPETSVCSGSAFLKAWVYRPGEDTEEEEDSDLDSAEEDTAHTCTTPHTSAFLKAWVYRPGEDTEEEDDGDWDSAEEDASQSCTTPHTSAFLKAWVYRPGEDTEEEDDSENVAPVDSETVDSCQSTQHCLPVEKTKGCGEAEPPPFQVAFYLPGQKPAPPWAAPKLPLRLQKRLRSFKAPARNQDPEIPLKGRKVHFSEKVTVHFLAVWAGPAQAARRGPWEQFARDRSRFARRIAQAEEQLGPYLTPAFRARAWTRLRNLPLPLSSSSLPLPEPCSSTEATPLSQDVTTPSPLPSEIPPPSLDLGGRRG

Row | SMILES | IC50 [1] | IC50 (GAPDH; [4]) | IC50 (GAPDH; [5]) | IC50 (PEG-3 [2]) | IC50 (PEG-3 [3]; [4]) | IC50 (PEG-3 [3]; [5]) | IC50 (Rat fibroblasts (CREF); mean of runs) | IC50 (Rat fibroblasts (CREF); [4]) | IC50 (Rat fibroblasts (CREF); [5])
1 | COc1ccc(C(NC(C)=O)c2ccc3cccnc3c2O)c(OC)c1 (centres undefined) | > 100 µM (inactive) | > 100 µM | > 100 µM | 5.33 µM | 3.68 µM | 6.97 µM | 51.8 µM (inactive) | 3.55 µM | > 100 µM
2 | COc1cccc2c1C(=O)c1c(O)c3c(c(O)c1C2=O)CC(O)(C(C)=NNC(=O)c1ccc(Cl)c(Cl)c1)CC3OC1CC(N)C(O)C(C)O1 (centres undefined) | 7.16 µM | 3.35 µM | 11 µM | 0.954 µM | 1.43 µM | 0.476 µM | 0.588 µM | 0.717 µM | 0.46 µM
3 | CS(=O)(=O)c1ccc(-c2cn3cc(C(=O)O)ccc3n2)cc1 | 27.6 µM | 24.6 µM | 30.5 µM | 10.2 µM | 6.91 µM | 13.4 µM | 42.9 µM | 42.3 µM | 43.4 µM
4 | CCCC(=O)NC(c1ccccc1)c1ccc2cccnc2c1O (centres undefined) | > 100 µM (inactive) | > 100 µM | > 100 µM | 2.47 µM | 3.04 µM | 1.91 µM | 13.1 µM | 0.587 µM | 25.7 µM
5 | CN=c1sc2c(n1C)C(=O)c1ccccc1C2=O | inactive | 29.9 µM | 48.4 µM | 9.93 µM | 9.56 µM | 10.3 µM | 4.98 µM | 4.97 µM | 5 µM
6 | OCCCNc1nccc(-c2cc(Nc3cccc(Cl)c3)ncn2)n1 | inactive | > 100 µM | 0.913 µM | 0.497 µM | 0.661 µM | 0.333 µM | 59.6 µM (inactive) | 19.1 µM | > 100 µM
7 | COC(=O)C1C=CC(OC2OC(COC(C)=O)C(OC(C)=O)C(OC(C)=O)C2OC(C)=O)n2c(=O)n(-c3ccccc3)c(=O)n21 (centres undefined) | 18.5 µM | 19.4 µM | 17.7 µM | 9.13 µM | 10.2 µM | 8.07 µM | 8.06 µM | 6.83 µM | 9.29 µM
8 | O=C(N/N=C\c1c(O)ccc2ccccc12)c1ccc(Cn2cccn2)o1 | > 100 µM (inactive) | > 100 µM | > 100 µM | 6.22 µM | 3.09 µM | 9.35 µM | > 100 µM (inactive) | > 100 µM | > 100 µM
9 | Cc1ccc(NC(=S)NC(=O)c2ccc(F)cc2)cc1S(=O)(=O)Nc1ccccc1Cl | inactive | 44.2 µM | 41 µM | 3.86 µM | 4.15 µM | 3.56 µM | 50.7 µM (inactive) | > 100 µM | 1.35 µM
10 | CCC(C)Cn1c(O)cc2nn(-c3nc4ccccc4s3)c(=O)c-2c1C (centres undefined) | 2.79 µM | 3.06 µM | 2.52 µM | 3 µM | 5.8 µM | < 0.2 µM | 65.6 µM (inactive) | 72.2 µM | 58.9 µM
11 | CC(/C=C/c1ccccc1)=N/NC(=O)c1cc([N+](=O)[O-])cc([N+](=O)[O-])c1 | inactive | > 100 µM | 9.02 µM | inactive | > 100 µM | 3.58 µM | 57.3 µM (inactive) | 14.5 µM | > 100 µM
12 | CN(C)CC1CCC/C(=C\c2ccc(OC(=O)c3ccc(Cl)cc3)cc2)C1=O (centres undefined) | inactive | 49.8 µM | 57.7 µM | 5.81 µM | 6.76 µM | 4.86 µM | > 100 µM (inactive) | > 100 µM | > 100 µM
13 | Cc1cc(Br)ccc1NC(=O)CNC(=O)Cn1ncc(Cl)c(Cl)c1=O | 10.9 µM | 10.1 µM | 11.8 µM | 6.59 µM | 8.31 µM | 4.87 µM | 54.2 µM (inactive) | 8.5 µM | > 100 µM
14 | CCc1ccc(/C=C2\SC(=S)N(CCCC(=O)Nc3cc(C)on3)C2=O)cc1 | 9.14 µM | 7.4 µM | 10.9 µM | 3.46 µM | 3.86 µM | 3.05 µM | > 100 µM (inactive) | > 100 µM | > 100 µM
15 | CC(=O)NC(c1ccc(Cl)cc1Cl)c1ccc2cccnc2c1O (centres undefined) | inactive | 31.5 µM | 61.9 µM | 1.77 µM | 0.852 µM | 2.68 µM | > 100 µM (inactive) | > 100 µM | > 100 µM
16 | O=C(CCl)N1c2ccccc2Sc2ccc3ccccc3c21 | 25.1 µM | 26.7 µM | 23.4 µM | 8.68 µM | 12.2 µM | 5.18 µM | 26.3 µM | 24.5 µM | 28.1 µM

Row | SMILES | IC50 [1] | IC50 (GAPDH; [4]) | IC50 (GAPDH; [5]) | IC50 (PEG-3 [2]) | IC50 (PEG-3 [3]; [4]) | IC50 (PEG-3 [3]; [5]) | IC50 (Rat fibroblasts (CREF); mean of runs) | IC50 (Rat fibroblasts (CREF); [4]) | IC50 (Rat fibroblasts (CREF); [5])
17 | COCCCNC(=O)c1ccc(Cn2c(=O)c3ccccc3n(Cc3ccccc3C#N)c2=O)cc1 | > 100 µM (inactive) | > 100 µM | > 100 µM | 4.18 µM | 4.1 µM | 4.27 µM | > 100 µM (inactive) | > 100 µM | > 100 µM
18 | CC1=CC2/C=C(\C)CCC(O)C(O)/C=C/C(=O)C23C(=O)NC(CC(C)C)C3C1C (centres undefined) | 7.88 µM | 9.17 µM | 6.59 µM | 4.78 µM | 5.76 µM | 3.79 µM | 14.3 µM | 20.1 µM | 8.55 µM
19 | Cc1ccsc1/C=N/Nc1cccc(C(=O)O)c1 | 5.35 µM | 3.26 µM | 7.43 µM | 1.6 µM | 1.27 µM | 1.92 µM | > 100 µM (inactive) | > 100 µM | > 100 µM
20 | Cc1ccc(/C=C2\SC(=S)N(CCCC(=O)NNC(=O)c3ccccc3O)C2=O)cc1 | 5.04 µM | 2.65 µM | 7.43 µM | 0.95 µM | 1.71 µM | < 0.2 µM | > 100 µM (inactive) | > 100 µM | > 100 µM
21 | Nc1nonc1-n1nnc(C(=O)N/N=C/c2cc(Br)ccc2O)c1CNc1ccccc1 | inactive | 45.2 µM | 59.3 µM | 10.9 µM | 4.19 µM | 17.6 µM | 77.8 µM (inactive) | > 100 µM | 55.7 µM
22 | CC(C)CC1C(=O)N(Cc2cn(Cc3ccco3)nn2)CCS(=O)(=O)N1Cc1ccc(-c2ccc(F)cc2)cc1 (centres undefined) | inactive | > 100 µM | 47.1 µM | 8.24 µM | 10.4 µM | 6.09 µM | 67.5 µM (inactive) | > 100 µM | 34.9 µM
23 | O=C(CSC1c2ccccc2-c2ccccc21)N/N=C/c1ccccc1O | > 100 µM (inactive) | > 100 µM | > 100 µM | inactive | 3.04 µM | > 100 µM | 69.5 µM (inactive) | > 100 µM | 38.9 µM
24 | CCCCC(=O)NC(c1ccccc1OC)c1ccc2cccnc2c1O (centres undefined) | inactive | 36.5 µM | > 100 µM | 10.6 µM | 3.35 µM | 17.8 µM | > 100 µM (inactive) | > 100 µM | > 100 µM
25 | Cc1ccccc1CNC(=O)C1CCCN(c2nnc(C)c3c(C)n(-c4ccccc4)nc23)C1 (centres undefined) | inactive | 41.3 µM | 25.2 µM | 10.4 µM | 14.6 µM | 6.15 µM | 19.8 µM | 23.9 µM | 15.6 µM
26 | C=C1CC2(OC1=O)c1ccccc1CCc1ccccc12 | 13.8 µM | 15.2 µM | 12.5 µM | 4.84 µM | 5.7 µM | 3.98 µM | 7.93 µM | 7.58 µM | 8.28 µM
27 | C=CCn1c(COc2ccccc2)nnc1SC(C)C(=O)N/N=C/c1cc(Cl)ccc1O (centres undefined) | > 100 µM (inactive) | > 100 µM | > 100 µM | 4.26 µM | 5.09 µM | 3.43 µM | > 100 µM (inactive) | > 100 µM | > 100 µM
28 | CN(O)C(=S)c1ccccc1 | > 100 µM (inactive) | > 100 µM | > 100 µM | inactive | 10.3 µM | 42.5 µM | > 100 µM (inactive) | > 100 µM | > 100 µM
29 | COc1ccc(-n2c(O)c(/C=N/Nc3nc(C)cc(C)n3)c3ccccc3c2=O)cc1OC | > 100 µM (inactive) | > 100 µM | > 100 µM | 4.99 µM | 2.71 µM | 7.28 µM | 50.9 µM (inactive) | 44.5 µM | 57.3 µM
30 | Cc1cc(C)c(C)c(S(=O)(=O)N2CCN(C(=O)c3cc(=O)[nH]c4ccccc34)CC2)c1C | inactive | 24.9 µM | 36.8 µM | 9.32 µM | 13.6 µM | 5.06 µM | 55.2 µM (inactive) | > 100 µM | 10.3 µM
31 | O=C(CNc1ccccc1)N/N=C/c1c(O)ccc2ccccc12 | > 100 µM (inactive) | > 100 µM | > 100 µM | inactive | 3.48 µM | > 100 µM | 51.1 µM (inactive) | 57.4 µM | 44.9 µM
